# Experimental data as given in patent US10611748B2, “Xanthone derivatives for the treatment of hepatitis B virus disease” (Hoffmann-La Roche Inc., priority 2017, dated 2020).
# System: extracellular HBeAg level (surrogate marker for cccDNA) in HepDES19 cells
# Assay: HepDES19 primary screen assay
# Type: cell-based, HBV
# Conditions: Hepatitis B virus, 120 h, 5 days compound incubation, HBeAg ELISA
# Excerpt: The assay was employed to primarily screen for novel cccDNA inhibitors. HepDES19 is an engineered cell line which contains a 1.1 unit length HBV genome, and pgRNA transcription from the transgene is controlled by Tetracycline (Tet). In the absence of Tet, pgRNA transcription will be induced, but HBV e antigen (HBeAg) could not be produced from this pgRNA due to the fact that the very short leader sequence before the HBeAg start codondisrupted the start codon. Only after cccDNA is formed, the missing leader sequence and start codon mutation would be restored from the 3′-terminal redundancy of pgRNA, and then HBeAg could be synthesized. Therefore, HBeAg could be used as a surrogate marker for cccDNA (Zhou, T. et al., Antiviral Res(2006), 72(2), 116-124; Guo, H. et al., J. Virol (2007), 81(22), 12472-12484).
# HepDES19 cells were seeded at 2×10^6 cells per T150 flask and cultured with the culture medium (Dulbecco's Modified Eagle Medium: Nutrient Mixture F-12 (DMEM:F12, Gibco Cat. 11320-82), 10% Fetal Bovine Serum (FBS, Clontech Cat. 631101), 0.1 mM Non-Essential Amino Acids Solution (NEAA, Gibco Cat. 11140-050), 50 μg/mL Penicillin-Streptomycin (PS, Invitrogen Cat. 15140-163), 500 μg/mL Geneticin (G418, Invitrogen Cat. 10131-027) containing 3 μg/mL Tet (Sigma, Cat. 87128) for 5 days. Cells were then seeded at 4×10^6 cells per T150 in the same culture medium as described above in the absence of Tet for 8 days. Cells were then harvested and frozen at density of 2×10^6 cells per mL. For compound testing, the frozen cells were thawed and seeded into 96-well plates at a density of 6×10^4 cells per well. At 24 hrs after seeding, half log serial dilutions of compounds made with Dimethyl sulfoxide (DMSO, Sigma, Cat. D2650) were further diluted with the same culture medium as described above before they were added to the cells to reach desired final compound concentrations and 1% DMSO concentration. Plates were then incubated at 37° C. for another 5 days before measurement of HBeAg level and cell viability. Extracellular HBeAg level were measured with enzyme-linked immunosorbent assay (ELISA) kit (Shanghai Kehua Diagnostic Medical Products Co., Ltd). Cell viability was assessed using Cell Counting Kit-8 (Donjindo, Cat. CK04-20). IC50 values were derived from the dose-response curve using 4 parameter logistic curve fit method.
# The compounds of the present invention were tested for their capacity to inhibit extracellular HBeAg level as described herein.
row,Compound,IC50
1,"O=c1c2ccc(N3CCCC3)cc2oc2c(Cl)cccc12 [Example 1, 5-chloro-3-pyrrolidin-1-yl-xanthen-9-one]",0.23 µM
2,"O=C(O)CC1CCN(c2ccc3c(=O)c4cccc(Cl)c4oc3c2)C1 (stereo not shown) [Example 8, 2-[1-(5-chloro-9-oxo-xanthen-3-yl)pyrrolidin-3-yl]acetic Acid]",7.53 µM
3,"O=c1c2ccc(N3CCCCC3)cc2oc2c(F)cccc12 [Example 9, 5-fluoro-3-(1-piperidyl)xanthen-9-one]",0.98 µM
4,"O=c1c2ccc(N3CCC(CO)C3)cc2oc2c(Cl)cccc12 (stereo not shown) [Example 10, 5-chloro-3-[3-(hydroxymethyl)pyrrolidin-1-yl]xanthen-9-one]",1.13 µM
5,"COC(=O)C1CCN(c2ccc3c(=O)c4cccc(Cl)c4oc3c2)C1 (stereo not shown) [Example 11, Methyl 1-(5-chloro-9-oxo-xanthen-3-yl)pyrrolidine-3-carboxylate]",1.17 µM
6,"O=c1c2ccc(N3CCCC(O)C3)cc2oc2c(Cl)cccc12 (stereo not shown) [Example 12, 5-chloro-3-(3-hydroxy-1-piperidyl)xanthen-9-one]",2.88 µM
7,"O=c1c2ccc(N3CCCCCC3)cc2oc2c(F)cccc12 [Example 13, 3-(azepan-1-yl)-5-fluoro-xanthen-9-one]",5.49 µM
8,"O=C(O)C1CCCN(c2ccc3c(=O)c4cccc(Cl)c4oc3c2)C1 (stereo not shown) [Example 14, 1-(5-chloro-9-oxo-xanthen-3-yl)piperidine-3-carboxylic acid]",5.79 µM
9,"O=C(O)[C@H]1CN(c2ccc3c(=O)c4cccc(Cl)c4oc3c2)C[C@@H]1c1ccc(F)cc1 [Example 15, (3R,4S)-1-(5-chloro-9-oxo-xanthen-3-yl)-4-(4-fluorophenyl)pyrrolidine-3-carboxylic Acid]",7.39 µM
10,"CC1(C(=O)O)CCN(c2ccc3c(=O)c4cccc(Cl)c4oc3c2)C1 (stereo not shown) [Example 16, 1-(5-chloro-9-oxo-xanthen-3-yl)-3-methyl-pyrrolidine-3-carboxylic Acid]",11.2 µM
11,"CC1(C)CN(c2ccc3c(=O)c4cccc(Cl)c4oc3c2)CC1C(=O)O (stereo not shown) [Example 17, 1-(5-chloro-9-oxo-xanthen-3-yl)-4,4-dimethyl-pyrrolidine-3-carboxylic Acid]",12.7 µM
12,"O=C(O)[C@H]1CN(c2ccc3c(=O)c4cccc(Cl)c4oc3c2)C[C@@H]1c1cccnc1 [Example 18, (3R,4S)-1-(5-chloro-9-oxo-xanthen-3-yl)-4-(3-pyridyl)pyrrolidine-3-carboxylic Acid]",16.6 µM
13,"O=C(O)C1(C(F)(F)F)CCN(c2ccc3c(=O)c4cccc(Cl)c4oc3c2)C1 (stereo not shown) [Example 19, 1-(5-chloro-9-oxo-xanthen-3-yl)-3-(trifluoromethyl)pyrrolidine-3-carboxylic Acid]",27 µM
14,"O=C(O)[C@@H]1CN(c2ccc3c(=O)c4cccc(Cl)c4oc3c2)C[C@H]1c1ccc(Cl)cc1 [Example 20, (3S,4R)-1-(5-chloro-9-oxo-xanthen-3-yl)-4-(4-chlorophenyl)pyrrolidine-3-carboxylic Acid]",46.6 µM
15,"O=c1c2ccc(N3CCCC3)cc2oc2c(F)cccc12 [Example 21, 5-fluoro-3-pyrrolidin-1-yl-xanthen-9-one]",0.27 µM
16,"O=c1c2ccc(N3CCCC3)cc2oc2c(F)ccc(Cl)c12 [Example 22, 1-chloro-4-fluoro-6-pyrrolidin-1-ylxanthen-9-one]",0.74 µM
17,"O=C1CCCN1c1ccc2c(=O)c3cccc(F)c3oc2c1 [Example 23, 1-(5-fluoro-9-oxo-xanthen-3-yl)pyrrolidin-2-one]",0.83 µM
18,"O=c1c2ccc(N3CCC(O)C3)cc2oc2c(F)cccc12 (stereo not shown) [Example 24, 5-fluoro-3-(3-hydroxypyrrolidin-1-yl)xanthen-9-one]",1.05 µM
19,"Cc1cc2c(=O)c3cccc(F)c3oc2cc1N1CCCC1 [Example 25, 5-fluoro-2-methyl-3-pyrrolidin-1-yl-xanthen-9-one]",1.52 µM
20,"O=c1c2ccc(N3CC[C@H](O)C3)cc2oc2c(Cl)cccc12 [Example 27, 5-chloro-3-[(3S)-3-hydroxypyrrolidin-1-yl]xanthen-9-one]",1.95 µM
21,"O=c1c2cc(F)c(N3CCCC3)cc2oc2c(F)cccc12 [Example 28, 2,5-difluoro-3-pyrrolidin-1-yl-xanthen-9-one]",1.86 µM
22,"O=c1c2ccc(N3CCOCC3)cc2oc2c(F)cccc12 [Example 29, 5-fluoro-3-morpholino-xanthen-9-one]",2.13 µM

row,Compound,IC50
1,"O=c1c2ccc(N3CC[C@@H](O)C3)cc2oc2c(Cl)cccc12 [Example 30, 5-chloro-3-[(3R)-3-hydroxypyrrolidin-1-yl]xanthen-9-one]",2.63 µM
2,"O=c1c2ccc(N3CC[C@H](O)C3)cc2oc2c(F)cccc12 [Example 31, 5-fluoro-3-[(3S)-3-hydroxypyrrolidin-1-yl]xanthen-9-one]",2.71 µM
3,"O=c1c2ccc(N3CC[C@@H](O)C3)cc2oc2c(F)cccc12 [Example 32, 5-fluoro-3-[(3R)-3-hydroxypyrrolidin-1-yl]xanthen-9-one]",2.72 µM
4,"COC1CCN(c2ccc3c(=O)c4cccc(F)c4oc3c2)C1 (stereo not shown) [Example 33, 5-fluoro-3-(3-methoxypyrrolidin-1-yl)xanthen-9-one]",4.06 µM
5,"O=c1c2ccc(N3CCC(c4ccncc4)C3)cc2oc2c(F)cccc12 (stereo not shown) [Example 34, 5-fluoro-3-[3-(4-pyridyl)pyrrolidin-1-yl]xanthen-9-one]",6.15 µM
6,"O=c1c2ccc(N3CCCC3)cc2oc2c(F)cc(Cl)cc12 [Example 35, 2-chloro-4-fluoro-6-pyrrolidin-1-yl-xanthen-9-one]",16.7 µM
7,"O=C(O)C1CCCN1c1ccc2c(=O)c3cccc(Cl)c3oc2c1 (stereo not shown) [Example 36, 1-(5-chloro-9-oxo-xanthen-3-yl)pyrrolidine-2-carboxylic Acid]",11.5 µM
8,"O=C(O)C1CCN(c2ccc3c(=O)c4cccc(C(F)(F)F)c4oc3c2)C1 (stereo not shown) [Example 37, 1-[9-oxo-5-(trifluoromethyl)xanthen-3-yl]pyrrolidine-3-carboxylic Acid]",13.4 µM
9,"CN1CCN(c2ccc3c(=O)c4cccc(F)c4oc3c2)CC1 [Example 38, 5-fluoro-3-(4-methylpiperazin-1-yl)xanthen-9-one]",16.1 µM
10,"O=c1c2cnc(N3CCCC3)cc2oc2c(F)cccc12 [Example 45, 6-fluoro-3-pyrrolidin-1-yl-chromeno[3,2-c]pyridin-10-one]",0.51 µM
11,"CN(C)C(=O)C1CCN(c2ccc3c(=O)c4cccc(Cl)c4oc3c2)C1 (stereo not shown) [Example 46, 1-(5-chloro-9-oxo-xanthen-3-yl)-N,N-dimethyl-pyrrolidine-3-carboxamide]",4.3 µM
12,"O=c1c2ccc(N3CCC4(CNC4)C3)cc2oc2c(F)cccc12 [Example 47, 3-(2,6-diazaspiro[3.4]octan-6-yl)-5-fluoro-xanthen-9-one]",4.77 µM
13,"O=c1c2ccc(N3CCC4(CCNC4)C3)cc2oc2c(F)cccc12 (stereo not shown) [Example 48, 3-(2,7-diazaspiro[4.4]nonan-2-yl)-5-fluoro-xanthen-9-one]",5.48 µM
14,"O=c1c2ccc(N3CCCNCC3)cc2oc2c(F)cccc12 [Example 49, 3-(1,4-diazepan-1-yl)-5-fluoro-xanthen-9-one]",7.56 µM
15,"N[C@H]1CCN(c2ccc3c(=O)c4cccc(F)c4oc3c2)C1 [Example 50, 3-[(3S)-3-aminopyrrolidin-1-yl]-5-fluoro-xanthen-9-one]",3.12 µM
16,"N[C@@H]1CCN(c2ccc3c(=O)c4cccc(F)c4oc3c2)C1 [Example 51, 3-[(3R)-3-aminopyrrolidin-1-yl]-5-fluoro-xanthen-9-one]",4.85 µM
17,"Fc1cccc2c1Oc1cc(N3CCCC3)ccc1C21CCCO1 (stereo not shown) [Example 52, 1-(5′-fluorospiro[tetrahydrofuran-2,9′-xanthene]-3′-yl)pyrrolidine]",14.5 µM
18,"CC1c2ccc(N3CCCC3)cc2Oc2c(Cl)cccc21 (stereo not shown) [Example 54, 1-(5-chloro-9-methyl-9H-xanthen-3-yl)pyrrolidine]",1.6 µM
19,"Clc1cccc2c1Oc1cc(N3CCCC3)ccc1C2 [Example 55, 1-(5-chloro-9H-xanthen-3-yl)pyrrolidine]",1.11 µM
20,"Clc1cccc2c1Oc1c(cc(Cl)c(N3CCCC3)c1Cl)C2 [Example 56, 1-(2,4,5-trichloro-9H-xanthen-3-yl)pyrrolidine]",6.28 µM
21,"Clc1cccc2c1Oc1cc(N3CCCC3)ccc1C2C1COC1 (stereo not shown) [Example 57, 1-[5-chloro-9-(oxetan-3-yl)-9H-xanthen-3-yl]pyrrolidine]",7.33 µM
